Values joined by “and” are separate entries in the source; they are usually repeats but may differ in a detail not shown here. Equal entries are not always repeated.
Columns and labels:
Format in all cases: in vivo
[1] = tested on: Rice plants; assay: Rice growth rate (column length); conditions: 12 wt. % hydroxytyrosol
Protocol: Rice plants were treated with 12 wt. % hydroxytyrosol over 28 days. As a control, rice plants were treated with water over 28 days. FIG. 4 depicts a line chart showing the column length of rice plants over 28 days. Table 1 provides the column length of rice plants treated with 12 wt. % hydroxytyrosol and water after 1, 14, and 28 days.

[2] = tested on: Corn seeds (field hybrid 7571); assay: Corn seed germination; conditions: 12 wt. % hydroxytyrosol solution, room temperature, 14 days; water control 27% (FIG. 1C), 33% (repeat, FIG. 1D)
Protocol: Corn seeds (field hybrid 7571) were incubated at room temperature in a solution including 12 wt. % hydroxytyrosol for 14 days. As a control, corn seeds (field hybrid 7571) were incubated at room temperature in water for 14 days.

[3] = tested on: Rice seeds (Japanese cultivar, Taipei 309); assay: Rice seed germination; conditions: 12 wt. % hydroxytyrosol solution, 37° C., 14 days; water control 56%
Protocol: Rice seeds (Japanese cultivar, Taipei 309) were incubated at 37° C. in a solution including 12 wt. % hydroxytyrosol for 14 days. As a control, rice seeds (Japanese cultivar, Taipei 309) were incubated at 37° C. in water for 14 days.

[4] = tested on: low molecular weight proteins (sHSPs, LTPs, pathogenesis-related proteins, and LEA proteins); assay: Fold change in protein expression (SDS-PAGE, Western blotting, densitometry); conditions: 12% hydroxytyrosol, vs water control, FIG. 6
Protocol: (§1) The effect of different hydroxytyrosol concentrations on crop stress resistance and protein production was examined. […] Protein quantification was conducted using SDS-PAGE and Western blotting for visualization, followed by densitometry analysis to measure fold increases in protein expression. Additionally, HPLC-DAD and mass spectrometry were utilized to confirm hydroxytyrosol stability and retention in plant tissue.

[5] = tested on: Rubisco; assay: as above; conditions: 12% hydroxytyrosol, vs water control, FIG. 6
Protocol: as §1

[6] = tested on: HSP70; assay: as above; conditions: 12% hydroxytyrosol, vs water control, FIG. 6
Protocol: as §1

[7] = tested on: other HSPs; assay: as above; conditions: 12% hydroxytyrosol, vs water control, FIG. 6
Protocol: as §1

[8] = tested on: Sorghum seeds (RT X 437); assay: Sorghum seed germination; conditions: 12 wt. % hydroxytyrosol solution, room temperature, 14 days; water control 36% (FIG. 2C), 29% (repeat, FIG. 2D)
Protocol: Sorghum seeds (RT X 437) were incubated at room temperature in a solution including 12 wt. % hydroxytyrosol for 14 days. As a control, sorghum seeds (RT X 437) were incubated at room temperature in water for 14 days.

## OCCc1ccc(O)c(O)c1 [hydroxytyrosol]
[1]; 1 day of treatment, water control 22 cm
  column length of rice plants: 35 cm
[1]; 14 days of treatment, water control 39 cm
  column length of rice plants: 82 cm
[1]; 28 days of treatment, water control 60 cm
  column length of rice plants: 112 cm
[2]
  corn seeds germinated: 75% and 69%
[3]
  rice seeds germinated: 74%
[4]
  increase in low molecular weight proteins (fold change in protein expression): 4.09 ×
[5]
  increase in Rubisco (fold change in protein expression): 1.72 ×
[6]
  increase in HSP70 (fold change in protein expression): 2.99 ×
[7]
  increase in other HSPs (fold change in protein expression): 3.10 ×
[8]
  sorghum seeds germinated: 78% and 77%

— patent US20250275535A1, “OLIVE TREE BIOMASS EXTRACT” (Veos Pharmaceuticals, S.L., priority 2024, published 2025)
